The conditions of data set [1]: ambient temperature; cited from earlier work.
A short description of data set [2]: Particle size and polydispersity by dynamic light scattering. It counts as physicochemical. Particulars: PCL5k-b-PEG5k NPs.
Data set [3] can be described thus: Encapsulation efficiency (ultrafiltration, BCA assay). Format: physicochemical. Particulars: LL37:SDS 1:1 PCL5k-b-PEG5k NPs.
The next data set has as its system cells. Nature of the data set: Lysozyme activity after release (ability to lyse cells). Format: biochemical.
A short description of data set [4]: API release from NCs by dialysis (BCA assay). Format: physicochemical. The procedure:
Drug concentrations were determined with the bicinchoninic acid (BCA) assay (Spectramax i3x, Molecular Devices) with absorbance measurements at 562 nm, using a standard curve of the same drug (unencapsulated) as the reference. API fractional release was determined by dialyzing NC sample in 100-fold 1×PBS. […] The drug concentration in each aliquot was determined by the BCA assay at 562 nm. The released fraction is the API concentration at each time point divided by the initial API concentration before dialysis (Eq. 2).
API release rates from NCs are a critical determinant of dosing frequency, in vivo active concentrations, and overall therapeutic effectiveness. The release rates of polymyxin B were assessed by enclosing NCs in an 8 kDa MWCO dialysis bag and diluting into a thousand-fold excess volume of PBS to simulate an “open sink” condition at room temperature. Encapsulated polymyxin within dialysis bags was measured over time, using the BCA assay, to determine the amount of API that had been released (FIGS. 7A, 7B, and 7C).

With `CCCCCCCC/C=C\CCCCCCCC(=O)O` [Oleic acid, oleic acid], the solubility in water in data set [1] is about 3e-07 g/g.

As to “LL37: cationic antibiotic peptide, 1719 Da, sequence FKRIVQRIKDFLR (nanoparticle formulation; LL37) [reference compound]”, the NP diameter in data set [2] (LL37 pre-ion paired with SDS 1:1 charge ratio) is about 120 nm. The Encapsulation efficiency entry in data set [3] is reported as “over 95%”.

Take Lysozyme [LYZ]: in the data set with cells (following release from NPs, over all formulations), the “released LYZ with activity equal to LYZ that was never encapsulated” value is “up to 100%”. For the same molecule, the “released LYZ that was bioactive” value is given as 100% in the data set on cells (paired 1:1 with DXS); 100% in the data set with cells (paired 1:1 with OA); “approximately 60%” in the data set with cells (paired 1:1 with SDS); “approximately 60%” with cells (paired 1:2 with DXS); 100% in the data set with cells (paired 1:2 with OA); under 10% in the data set with cells (paired 1:2 with SDS). For the same molecule, the “released LYZ that was bioactive” value in the data set with cells (paired 1:4 with DXS) is “approximately 60%”; with cells (paired 1:4 with OA), “approximately 60%”; in the data set on cells (paired 1:4 with SDS), under 10%. The NP diameter in data set [2] (LYZ pre-formed with SDS or DXS) was about 150 nm. In data set [2] (LYZ pre-formed with SDS or DXS), this molecule came in with a PDI of under 0.2. Further, the “LYZ released by 14 days” value in data set [4] (NPs with OA, 1:2 charge ratio) is recorded as 20%; in data set [4] (NPs with OA, 1:4 charge ratio), 10%; in data set [4] (NPs with SDS, 1:1 charge ratio), 50%.

Values taken from patent publication US12357582B2, “Hydrophobic ion pairing and flash nanoprecipitation for formation of controlled-release nanocarrier formulations” (The Trustees of Princeton University, priority 2017, dated 2025).
